Assay results published in the NIST ThermoML archive (doi:10.1016/j.fluid.2015.04.017).

Experiment: xn = mol fraction of the nth substance listed
Conditions: 101 kPa, Liquid; for viscosity: Concentric cylinders viscometry; for mass density: Vibrating tube method

CCOC(=O)C(C)O (stereo not drawn) [DL-ethyl lactate] + Cc1ccccc1
Conditions | mass density, 288.15 K [kg/m3] | mass density, 293.15 K [kg/m3] | mass density, 298.15 K [kg/m3] | mass density, 303.15 K [kg/m3] | viscosity, 288.15 K [mPa·s] | viscosity, 293.15 K [mPa·s] | viscosity, 298.15 K [mPa·s] | viscosity, 303.15 K [mPa·s]
x1 = 0.1001 | 887.622 | 882.811 | 877.99 | 873.16 | 0.6897 | 0.6502 | 0.6148 | 0.5814
x1 = 0.2001 | 904.719 | 899.769 | 894.808 | 889.833 | 0.7894 | 0.7404 | 0.6896 | 0.6488
x1 = 0.3 | 921.906 | 916.845 | 911.77 | 906.687 | 0.9136 | 0.8468 | 0.7865 | 0.7345
x1 = 0.4 | 939.168 | 934.015 | 928.847 | 923.666 | 1.06 | 0.9765 | 0.9011 | 0.8343
x1 = 0.4998 | 956.144 | 950.923 | 945.727 | 940.433 | 1.258 | 1.141 | 1.043 | 0.9586
x1 = 0.6001 | 973.156 | 967.906 | 962.633 | 957.336 | 1.493 | 1.344 | 1.22 | 1.112
x1 = 0.7 | 990.077 | 984.738 | 979.381 | 974.002 | 1.795 | 1.597 | 1.434 | 1.295
x1 = 0.7999 | 1006.73 | 1001.36 | 995.963 | 990.547 | 2.174 | 1.911 | 1.695 | 1.517
x1 = 0.9 | 1023.31 | 1017.91 | 1012.47 | 1007.14 | 2.637 | 2.29 | 2.01 | 1.782
x1 = 1 | 1039.28 | 1033.84 | 1028.39 | 1022.92 | 3.207 | 2.75 | 2.39 | 2.097
